# Measured values: US20240270821A1, “GIP/GLP1/GCG TRI-RECEPTOR AGONISTS AND USES THEREOF” (priority 2023, published 2024)
# Where two headings read alike, the source gives them in different places. Starred links: 1 amine or outer side, 2 acyl side, 3 side chain; linkers in the order of their positions; H or OH if unused. Non-standard residues stand in square brackets, D forms with d. Residues, ends and D or L forms follow the SMILES beside them. Groups on a side chain read outwards from the residue. No end group written: not given here. *: point of attachment. C18 diacid = O=C(O)CCCCCCCCCCCCCCCCC(=O)*; αMePhe(2-F) = C[C@](N)(Cc1ccccc1F)C(=O)O; γGlu = O=C(O)[C@H](CCC(=O)[*:2])N[*:1]; αMe4Pal = C[C@](N)(Cc1ccncc1)C(=O)O; αMeY = C[C@](N)(Cc1ccc(O)cc1)C(=O)O; Hyp = O=C(O)[C@@H]1C[C@@H](O)CN1; 4Pal = N[C@@H](Cc1ccncc1)C(=O)O; αMeL = CC(C)C[C@](C)(N)C(=O)O; αMeS = C[C@](N)(CO)C(=O)O; Orn = NCCC[C@H](N)C(=O)O; AEEA = NCCOCCOCC(=O)O; Aib = CC(C)(N)C(=O)O
# Legend:
# Format in all cases: cell-based
# [1] = biological target: T1, hGLP-1R (Homo sapiens, UniProt P43220); assay: Functional cAMP activation in the presence of 0.1% casein (no HSA); details: read-out: Relative cAMP EC50, hGLP-1R;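 further: intracellular cAMP rise after 30 min at 37 °C read by HTRF, normalized between buffer only (0%) and maximal control ligand (100%), four-parameter variable-slope fit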
# [2] = biological target: T1, hGLP-1R; assay: Functional cAMP activity in the presence of 1% HSA; details: read-out: cAMP Rel EC50, hGLP-1R
# [3] = biological target: T2, hGIPR (Homo sapiens, UniProt P48546); assay: Functional cAMP activity in the presence of 1% HSA; details: read-out: cAMP Rel EC50, hGIPR
# T2 sequence (P48546 22-466): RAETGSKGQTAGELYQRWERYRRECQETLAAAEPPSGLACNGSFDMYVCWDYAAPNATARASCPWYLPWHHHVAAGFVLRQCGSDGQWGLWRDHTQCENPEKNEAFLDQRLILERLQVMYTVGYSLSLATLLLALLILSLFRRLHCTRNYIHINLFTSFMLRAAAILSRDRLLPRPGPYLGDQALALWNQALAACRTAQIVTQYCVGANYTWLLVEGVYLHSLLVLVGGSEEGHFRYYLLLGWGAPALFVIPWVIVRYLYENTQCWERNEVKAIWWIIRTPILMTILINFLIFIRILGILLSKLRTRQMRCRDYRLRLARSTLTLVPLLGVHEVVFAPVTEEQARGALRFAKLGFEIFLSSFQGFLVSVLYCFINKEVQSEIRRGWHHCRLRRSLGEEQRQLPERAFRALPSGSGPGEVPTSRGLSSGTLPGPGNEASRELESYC
# [4] = biological target: human GcgR (Homo sapiens, UniProt P47871); assay: Functional cAMP activity in the presence of 1% HSA; details: read-out: cAMP Rel EC50, hGcgR
# [5] = biological target: T2, hGIPR; assay: Functional cAMP activation in the presence of 0.1% casein (no HSA); details: read-out: Relative cAMP EC50, hGIPR;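 on Relative cAMP EC50, hGIPR: intracellular cAMP rise after 30 min at 37 °C read by HTRF against a standard curve, scaled between buffer alone (0%) and top control ligand concentration (100%), four-parameter fit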;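 on Relative cAMP EC50, hGcgR: intracellular cAMP rise after 30 min at 37 °C, read by HTRF against a cAMP standard curve, scaled from buffer only (0%) to maximal control ligand response (100%)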
# [6] = biological target: hGcgR (Homo sapiens, UniProt P47871); assay: as above; details: read-out: Relative cAMP EC50, hGcgR;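 further: intracellular cAMP rise after 30 min at 37 °C, read by HTRF against a cAMP standard curve, scaled from buffer only (0%) to maximal control ligand response (100%)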
# [7] = 0.1% casein, no HSA, geometric mean
# [8] = in the presence of 0.1% casein (no HSA), geometric mean
# Chain of hGcgR (P47871 26-477): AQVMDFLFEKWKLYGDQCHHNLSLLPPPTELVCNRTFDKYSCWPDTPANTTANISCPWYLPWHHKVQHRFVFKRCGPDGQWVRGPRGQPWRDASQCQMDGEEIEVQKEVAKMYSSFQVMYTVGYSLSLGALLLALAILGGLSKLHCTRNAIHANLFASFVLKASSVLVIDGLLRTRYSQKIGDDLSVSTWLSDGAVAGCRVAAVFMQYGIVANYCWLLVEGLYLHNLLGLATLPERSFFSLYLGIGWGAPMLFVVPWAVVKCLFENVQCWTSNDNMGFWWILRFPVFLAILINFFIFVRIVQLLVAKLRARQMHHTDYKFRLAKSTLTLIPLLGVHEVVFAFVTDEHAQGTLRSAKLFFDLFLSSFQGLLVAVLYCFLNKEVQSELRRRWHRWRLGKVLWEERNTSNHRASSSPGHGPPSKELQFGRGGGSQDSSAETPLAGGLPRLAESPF
# Chain of human GcgR (P47871 26-477): as above
# T1 sequence (P43220 24-463): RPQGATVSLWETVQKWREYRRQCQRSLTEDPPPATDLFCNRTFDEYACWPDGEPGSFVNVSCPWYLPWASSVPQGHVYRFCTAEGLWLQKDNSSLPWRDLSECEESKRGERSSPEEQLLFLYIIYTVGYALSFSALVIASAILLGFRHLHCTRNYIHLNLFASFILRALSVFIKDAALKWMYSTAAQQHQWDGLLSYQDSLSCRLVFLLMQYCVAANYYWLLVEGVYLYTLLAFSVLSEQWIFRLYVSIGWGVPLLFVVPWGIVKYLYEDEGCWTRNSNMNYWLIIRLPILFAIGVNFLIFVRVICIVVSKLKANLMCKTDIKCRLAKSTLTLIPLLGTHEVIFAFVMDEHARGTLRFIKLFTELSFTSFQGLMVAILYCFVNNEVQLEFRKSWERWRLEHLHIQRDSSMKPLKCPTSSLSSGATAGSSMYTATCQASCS
Molecule,"EC50 [1, 7] [nM]","EC50 ([2]; HEK-293 cells expressing hGLP-1R, 1% HSA, geometric mean of relative EC50) [nM]","EC50 ([3]; HEK-293 cells expressing hGIPR, 1% HSA, geometric mean of relative EC50) [nM]","EC50 ([4]; HEK-293 cells expressing hGcgR, 1% HSA, geometric mean of relative EC50) [nM]","EC50 [5, 7] [nM]","EC50 [6, 7] [nM]","EC50 [1, 8] [nM]",EC50 [2] [nM],EC50 [3] [nM],EC50 [4] [nM],"EC50 [5, 8] [nM]","EC50 [6, 8] [nM]",EC50 [1] [nM],EC50 [5] [nM],EC50 [6] [nM]
CC[C@H](C)[C@H](NC(=O)[C@H](Cc1ccccc1)NC(=O)[C@H](C)NC(=O)C(C)(C)NC(=O)[C@H](C)NC(=O)[C@H](C)NC(=O)[C@H](CCCCNC(=O)COCCOCCNC(=O)CC[C@H](NC(=O)CCCCCCCCCCCCCCCCC(=O)O)C(=O)O)NC(=O)[C@H](CCCN)NC(=O)[C@H](CC(=O)O)NC(=O)[C@H](CC(C)C)NC(=O)[C@](C)(CC(C)C)NC(=O)[C@@H](NC(=O)[C@H](CO)NC(=O)[C@H](Cc1ccncc1)NC(=O)[C@H](CC(=O)O)NC(=O)[C@H](CO)NC(=O)[C@@H](NC(=O)[C@](C)(Cc1ccccc1F)NC(=O)[C@@H](NC(=O)CNC(=O)[C@H](CCC(N)=O)NC(=O)C(C)(C)NC(=O)[C@@H](N)Cc1ccc(O)cc1)[C@@H](C)O)[C@@H](C)O)[C@@H](C)CC)C(=O)N[C@H](CCC(=O)O)C(=O)N[C@@](C)(Cc1ccc(O)cc1)C(=O)N[C@@H](CC(C)C)C(=O)N[C@@H](CC(C)C)C(=O)N[C@@H](CCC(=O)O)C(=O)NCC(=O)NCC(=O)N1CCC[C@H]1C(=O)N[C@@H](CO)C(=O)N[C@@H](CO)C(=O)NCC(=O)N[C@@H](CCC(=O)O)C(=O)N1CCC[C@H]1C(=O)N1CCC[C@H]1C(=O)N1CCC[C@H]1C(=O)N[C@@H](CO)C(N)=O [Example 1236] (H-Y[Aib]QGT[αMePhe(2-F)]TSD[4Pal]SI[αMeL]LD[Orn]K([AEEA-γGlu-C18 diacid])AA[Aib]AFI[dE][αMeY]LLEGGPSSGEPPPS-NH2),0.304,95.8,11.9,502,0.052,0.947,,,,,,,,,
H-Y[Aib]QGTFTSD[4Pal]SQ[αMeL]LDKK([γGlu-γGlu-C18 diacid])AQ[αMe4Pal]AFIEYLIAGGPSSGAPPPEGS-NH2 [Example 969],,,,,,,1.21,113,12.6,660,0.142,5.48,,,
CC[C@H](C)[C@H](NC(=O)[C@H](Cc1ccccc1)NC(=O)[C@H](C)NC(=O)C(C)(C)NC(=O)[C@H](CCC(N)=O)NC(=O)[C@H](C)NC(=O)[C@H](CCCCNC(=O)COCCOCCNC(=O)COCCOCCNC(=O)CC[C@H](NC(=O)CCCCCCCCCCCCCCCCCCC(=O)O)C(=O)O)NC(=O)[C@H](CCCCN)NC(=O)[C@H](CC(=O)O)NC(=O)[C@H](CC(C)C)NC(=O)[C@](C)(CC(C)C)NC(=O)[C@H](CCCN)NC(=O)[C@H](CO)NC(=O)[C@H](Cc1ccccc1)NC(=O)[C@H](CC(=O)O)NC(=O)[C@H](CO)NC(=O)[C@@H](NC(=O)[C@H](Cc1ccccc1)NC(=O)[C@@H](NC(=O)CNC(=O)[C@H](CCC(N)=O)NC(=O)C(C)(C)NC(=O)[C@@H](N)Cc1ccc(O)cc1)[C@@H](C)O)[C@@H](C)O)C(=O)N[C@@H](CCC(=O)O)C(=O)N[C@@H](Cc1ccc(O)cc1)C(=O)N[C@@H](CC(C)C)C(=O)N[C@@H](CC(C)C)C(=O)N[C@@H](CCC(=O)O)C(=O)N[C@H](C)C(=O)NCC(=O)N1CCC[C@H]1C(=O)N[C@@H](CO)C(=O)N[C@@H](CO)C(=O)NCC(=O)N[C@@H](C)C(=O)N1CCC[C@H]1C(=O)N1CCC[C@H]1C(=O)N1CCC[C@H]1C(=O)N[C@@H](CO)C(=O)N[C@@H](CCC(=O)O)C(=O)NCC(N)=O [Example 72],,,,,,,1.86,683,56.7,1910,0.202,5.48,,,
H-Y[Aib]QGTFTSDFSK[αMeL]LDKK([AEEA-AEEA-γGlu-C18 diacid])AQ[Aib]AFIEYLLEGGPSSGAPPPSGS-NH2 [Example 142],,,,,,,4.37,391,14.1,1230,0.216,3.49,,,
Y[Aib]QGT[αMePhe(2-F)]TSD[4Pal][αMeS]I[αMeL]LD[Orn]K([AEEA-γGlu-C18 diacid])AQ[αMe4Pal]EFI[dE][αMeY]LVEGGPSSGAPPPSGGGE-NH2 [Example 769],,,,,,,,34,1.02,269,,,0.247,0.00852,1.33
H-Y[Aib]QGT[αMePhe(2-F)]TSD[4Pal][αMeS]I[αMeL]LD[Orn]K([AEEA-γGlu-C18 diacid])AQ[αMe4Pal]EFI[dE][αMeY]LIEGGPPS[Aib][Orn]PPPSGGGE-NH2 [Example 1199],0.5,,,,0.0076,2.05,,63.9,0.733,352,,,,,
H-Y[Aib]QGTFTSD[4Pal]S[Orn][αMeL]LD[Orn]K([γGlu-γGlu-C18 diacid])AQ[αMe4Pal]AFIEYLIAGGPSSGEPPPSGTE-NH2 [Example 984],,,,,,,2.07,160,23.5,409,0.232,4.5,,,
H-Y[Aib]QGTFTSD[4Pal]SQ[αMeL]LD[Orn]K([dE-γGlu-C18 diacid])AQ[αMe4Pal]AFIQ[αMeY]LIA[Aib]GPSSGEPPPSGGGE-NH2 [Example 1130],,,,,,,0.641,44.5,3.73,1240,0.0441,13.3,,,
H-Y[Aib]QGTFTSDFS[Orn][αMeL]LDKK([AEEA-γGlu-C18 diacid])AQ[Aib]AFIEWLLEGGPSSGAPPPEGE-NH2 [Example 120],,,,,,,4.77,664,33.4,1540,0.44,5.85,,,
H-Y[Aib]QGT[αMePhe(2-F)]TSD[4Pal]SILLD[Orn]K([γGlu-γGlu-C18 diacid])AQ[Aib]AFIEYLQEGGPSSGAPPPSGTEE-NH2 [Example 581],,,,,,,,65.9,7.29,1500,,,0.406,0.0812,8.18
CC[C@H](C)[C@H](NC(=O)[C@H](Cc1ccccc1)NC(=O)[C@H](C)NC(=O)C(C)(C)NC(=O)[C@H](CCC(N)=O)NC(=O)[C@H](C)NC(=O)[C@H](CCCCNC(=O)COCCOCCNC(=O)CC[C@H](NC(=O)CCCCCCCCCCCCCCCCC(=O)O)C(=O)O)NC(=O)[C@H](CCCCN)NC(=O)[C@H](CC(=O)O)NC(=O)[C@H](CC(C)C)NC(=O)[C@H](CC(C)C)NC(=O)[C@H](CO)NC(=O)[C@H](CO)NC(=O)[C@H](Cc1ccc(O)cc1)NC(=O)[C@H](CC(=O)O)NC(=O)[C@H](CO)NC(=O)[C@@H](NC(=O)[C@](C)(Cc1ccccc1F)NC(=O)[C@@H](NC(=O)CNC(=O)[C@H](CCC(N)=O)NC(=O)C(C)(C)NC(=O)[C@@H](N)Cc1ccc(O)cc1)[C@@H](C)O)[C@@H](C)O)C(=O)N[C@@H](CCC(=O)O)C(=O)N[C@@H](Cc1ccc(O)cc1)C(=O)N[C@@H](CC(C)C)C(=O)N[C@@H](CCC(=O)O)C(=O)N[C@@H](CCC(=O)O)C(=O)NCC(=O)NCC(=O)N1CCC[C@H]1C(=O)N[C@@H](CO)C(=O)N[C@@H](CO)C(=O)NCC(=O)N[C@@H](C)C(=O)N1CCC[C@H]1C(=O)N1CCC[C@H]1C(=O)N1CCC[C@H]1C(=O)N[C@@H](CO)C(N)=O [Example 409] (H-Y[Aib]QGT[αMePhe(2-F)]TSDYSSLLDKK([AEEA-γGlu-C18 diacid])AQ[Aib]AFIEYLEEGGPSSGAPPPS-NH2),,,,,,,,41.7,66.6,1190,,,0.484,0.363,7.92
H-Y[Aib]QGTFTSDFS[Orn][αMeL]LDKK([AEEA-γGlu-C18 diacid])AQ[Aib]AFIEYLLEGG[Hyp]SSGAPPPGGS-NH2 [Example 234],,,,,,,4.72,604,31.1,702,0.322,7.87,,,
